Measured values published in ChEMBL document CHEMBL1158165, “Correlation between reduction potentials and inhibitions of Epstein-Barr virus activation by anthraquinone derivatives” (Bioorg Med Chem Lett, 2008).

Tests used:
Format in all cases: cell-based
Raji [1] = experiment: Inhibition of 12-O-tetradecanoylphorbol-13-acetate induced EBV-early antigen activation in human Raji cells; details: human gammaherpesvirus 4
Raji [2] = experiment: Inhibition of 12-O-tetradecanoylphorbol-13-acetate induced EBV-early antigen activation in human Raji cells at 500 molar ratio relative to control; parameters: scale not given: the % may be the effect or the level left; details: human gammaherpesvirus 4
Raji [3] = experiment: Inhibition of 12-O-tetradecanoylphorbol-13-acetate induced EBV-early antigen activation in human Raji cells at 10 molar ratio relative to control; parameters: scale not given: the % may be the effect or the level left; details: human gammaherpesvirus 4
[4] = Cytotoxicity against human Raji cells assessed as cell viability at 1000 molar ratio; details: read-out: Activity
Raji [5] = experiment: Inhibition of 12-O-tetradecanoylphorbol-13-acetate induced EBV-early antigen activation in human Raji cells at 100 molar ratio relative to control; parameters: scale not given: the % may be the effect or the level left; details: human gammaherpesvirus 4
Raji [6] = experiment: Inhibition of 12-O-tetradecanoylphorbol-13-acetate induced EBV-early antigen activation in human Raji cells at 1000 molar ratio relative to control; parameters: scale not given: the % may be the effect or the level left; details: human gammaherpesvirus 4

SMILES	logIC50 (Raji [1])	Activity (Raji [2])	Activity (Raji [3])	viability at 1000 molar ratio [4]	Activity (Raji [5])	Activity (Raji [6])
CCc1ccc2c(c1)C(=O)c1ccccc1C2=O	2.7					
Cc1cc(O)c2c(c1)C(=O)c1cc(CO)c(-c3c(O)cc4c(c3O)C(=O)c3c(O)cccc3C4=O)c(O)c1C2=O	2.8					
COc1cc(O)cc2c1C(=O)c1c(O)cc(C)cc1C2=O [QUESTIN]	2.52	25.6%	95.6%	60%	52.8%	3.7%
O=C1c2ccccc2C(=O)c2c(O)cccc21	2.77					
O=C1c2cccc(O)c2C(=O)c2c(O)cccc21	2.78					
O=C1c2ccccc2C(=O)c2ccccc21	3.04					
Cc1cc2c(c(O)c1-c1c(C)cc3c(c1O)C(=O)c1c(O)cc(O)cc1C3=O)C(=O)c1c(O)cc(O)cc1C2=O	2.7					
O=C1c2ccc(O)cc2C(=O)c2ccc(O)cc21	2.88					
COc1cc(OC)c2c(c1)C(=O)c1cc(C)cc(O)c1C2=O	2.5	24.2%	94.7%	60%	51.7%	2.9%
COc1cc2c(c(OC)c1O)C(=O)c1c(ccc(C)c1O)C2=O	2.55					
Cc1cc(O)c2c(c1)C(=O)c1cc(O)c(-c3c(C)cc4c(c3O)C(=O)c3c(O)cccc3C4=O)c(O)c1C2=O	2.83					
Cc1cc(O)c2c(c1)C(=O)c1cccc(O)c1C2=O	2.68					
CC(=O)Oc1cc(C)cc2c1C(=O)c1c(OC(C)=O)cc(O)cc1C2=O	2.7					
O=C1c2cccc(O)c2C(=O)c2c1cc(CO)c(-c1c(CO)cc3c(c1O)C(=O)c1c(O)cccc1C3=O)c2O	2.78					
COc1cc(C)cc2c1C(=O)c1c(O)cccc1C2=O	2.82					
Cc1cc2c(c(O)c1-c1c(C)cc3c(c1O)C(=O)c1c(O)cc(O)cc1C3=O)C(=O)c1c(O)cccc1C2=O	2.8					
COc1cc(O)c2c(c1)C(=O)c1cc(C)cc(OC)c1C2=O	2.43	21.3%	91.8%	60%	45.3%	0%

SMILES	logIC50 (Raji [1])	Activity (Raji [2])	Activity (Raji [3])	viability at 1000 molar ratio [4]	Activity (Raji [5])	Activity (Raji [6])
COc1cc(C)cc2c1C(=O)c1c(O)cc(O)cc1C2=O [1-O-METHYLEMODIN]	2.49	24.1%	94.1%	60%	49.8%	1.1%
COc1cc(O)c2c(c1)C(=O)c1cc(C)cc(O)c1C2=O [PHYSCION]	2.5	24.7%	94.2%	60%	51.1%	1.5%
COc1cc2c(c(OC)c1OC)C(=O)c1c(cc(C)c(O)c1OC)C2=O	2.73					
COc1cc2c(c(O)c1OC)C(=O)c1c(cc(C)c(O)c1OC)C2=O	2.73					
COc1cc(C)cc2c1C(=O)c1c(OC)cc(O)cc1C2=O	2.45	22%	92.6%	60%	47.3%	0%
Cc1ccc2c(c1)C(=O)c1ccccc1C2=O	2.66					
Cc1cc(O)c2c(c1)C(=O)c1cc(O)cc(O)c1C2=O [EMODIN]	2.48	24.8%	91%	70%	51.6%	1.5%
Cc1cc2c(c(O)c1-c1c(C)cc3c(c1O)C(=O)c1c(O)cccc1C3=O)C(=O)c1c(O)cccc1C2=O	2.86					
Cc1ccc2c(c1O)C(=O)c1ccccc1C2=O	2.72					
O=C1c2cccc(O)c2C(=O)c2c(O)cc(CO)cc21	2.66					
COc1c(O)cc2c(c1O)C(=O)c1c(cc(C)c(O)c1OC)C2=O	2.72					
COc1cc2c(c(O)c1C)C(=O)c1c(O)cc(C)cc1C2=O	2.48	23.2%	93%	60%	50%	1.2%
CC(=O)Oc1cc(OC(C)=O)c2c(c1)C(=O)c1cc(C(=O)O)cc(OC(C)=O)c1C2=O	2.66					
COc1c(O)c(C)cc2c1C(=O)c1c(O)cccc1C2=O [OBTUSIFOLIN]	2.55	27.8%	98.7%	60%	54.9%	4.3%
COc1cc(OC)c2c(c1)C(=O)c1cc(C)cc(OC)c1C2=O	2.41	21.1%	90.1%	60%	44%	0%
CC(=O)Oc1cc(O)cc2c1C(=O)c1c(O)cc(C)cc1C2=O	2.69					
CC(=O)Oc1cc(OC(C)=O)c2c(c1)C(=O)c1cc(C)cc(OC(C)=O)c1C2=O	2.67					
